Experimental data from patent publication US10168342B2, “Lipid probes and uses thereof” (THE SCRIPPS RESEARCH INSTITUTE, priority 2015, dated 2019).
Where two headings read alike, the source gives them in different places.

Experiments:
[1] = molecular target: AEA-DA lipid probe targets in Neuro2a cells (Mus musculus, UniProt P62814)
[2] = molecular target: T1, AEA-DA lipid probe targets in Neuro2a cells (Mus musculus, UniProt Q60605)
T1 sequence (Q60605 1-151): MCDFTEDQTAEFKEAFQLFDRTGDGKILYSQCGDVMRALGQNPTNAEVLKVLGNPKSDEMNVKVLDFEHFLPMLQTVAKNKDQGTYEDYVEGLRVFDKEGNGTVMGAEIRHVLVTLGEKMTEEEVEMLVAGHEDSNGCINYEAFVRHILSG

[3] = molecular target: T2, AEA-DA lipid probe targets in Neuro2a cells (Mus musculus, UniProt Q8BHC4); details: for SILAC ratio, DCAKD (Q8BHC4): Neuro2a cells, AEA-DA probe
T2 sequence (Q8BHC4 1-231): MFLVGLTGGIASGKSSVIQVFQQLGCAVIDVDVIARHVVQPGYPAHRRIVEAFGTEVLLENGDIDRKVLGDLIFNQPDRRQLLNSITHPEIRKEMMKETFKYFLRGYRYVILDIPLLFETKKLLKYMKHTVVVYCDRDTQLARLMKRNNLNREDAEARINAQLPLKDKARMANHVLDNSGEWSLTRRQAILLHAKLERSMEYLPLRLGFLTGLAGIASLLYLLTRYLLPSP

[4] = molecular target: T3, AEA-DA lipid probe targets in Neuro2a cells (Mus musculus, UniProt Q8BXN9)
T3 sequence (Q8BXN9 22-555): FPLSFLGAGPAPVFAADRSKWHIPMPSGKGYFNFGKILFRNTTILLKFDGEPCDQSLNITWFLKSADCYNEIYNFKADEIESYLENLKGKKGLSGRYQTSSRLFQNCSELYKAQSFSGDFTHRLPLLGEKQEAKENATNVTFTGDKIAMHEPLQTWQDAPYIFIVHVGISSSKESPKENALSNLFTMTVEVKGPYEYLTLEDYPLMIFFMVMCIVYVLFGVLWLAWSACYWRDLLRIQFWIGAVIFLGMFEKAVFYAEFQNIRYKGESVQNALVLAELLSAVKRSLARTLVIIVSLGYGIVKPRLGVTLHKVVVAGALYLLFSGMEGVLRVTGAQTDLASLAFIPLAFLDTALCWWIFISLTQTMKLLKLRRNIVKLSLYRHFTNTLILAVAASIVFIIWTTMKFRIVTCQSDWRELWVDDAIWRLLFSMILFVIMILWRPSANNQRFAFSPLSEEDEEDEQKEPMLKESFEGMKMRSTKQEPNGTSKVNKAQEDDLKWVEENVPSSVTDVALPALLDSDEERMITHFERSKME

[5] = molecular target: T4, AEA-DA lipid probe targets in Neuro2a cells (Mus musculus, UniProt Q8R127)
T4 sequence (Q8R127 1-429): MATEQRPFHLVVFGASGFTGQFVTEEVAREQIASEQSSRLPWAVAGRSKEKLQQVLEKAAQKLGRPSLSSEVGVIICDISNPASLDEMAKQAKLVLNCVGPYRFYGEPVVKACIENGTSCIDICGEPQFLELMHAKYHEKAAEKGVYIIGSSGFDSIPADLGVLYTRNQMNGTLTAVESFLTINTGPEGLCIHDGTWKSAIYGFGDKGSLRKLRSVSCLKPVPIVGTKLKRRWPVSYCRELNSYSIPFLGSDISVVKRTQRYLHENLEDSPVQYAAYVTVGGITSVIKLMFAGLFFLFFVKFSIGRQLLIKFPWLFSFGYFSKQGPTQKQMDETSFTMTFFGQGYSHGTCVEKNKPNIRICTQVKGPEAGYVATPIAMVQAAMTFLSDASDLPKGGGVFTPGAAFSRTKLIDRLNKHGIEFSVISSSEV

[6] = molecular target: T5, AEA-DA lipid probe targets in Neuro2a cells (Mus musculus, UniProt Q8R1L4)
T5 sequence (Q8R1L4 1-214): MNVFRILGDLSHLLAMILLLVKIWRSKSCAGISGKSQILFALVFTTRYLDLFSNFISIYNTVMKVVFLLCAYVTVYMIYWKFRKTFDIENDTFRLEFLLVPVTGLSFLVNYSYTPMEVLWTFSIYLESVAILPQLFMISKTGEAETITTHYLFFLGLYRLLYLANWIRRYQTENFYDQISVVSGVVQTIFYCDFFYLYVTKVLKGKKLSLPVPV

[7] = molecular target: T6, AEA-DA lipid probe targets in Neuro2a cells (Mus musculus, UniProt Q91V01); details: for SILAC ratio, LPCAT3 (Q6P1A2): Neuro2a cells, AEA-DA probe
T6 sequence (Q91V01 1-487): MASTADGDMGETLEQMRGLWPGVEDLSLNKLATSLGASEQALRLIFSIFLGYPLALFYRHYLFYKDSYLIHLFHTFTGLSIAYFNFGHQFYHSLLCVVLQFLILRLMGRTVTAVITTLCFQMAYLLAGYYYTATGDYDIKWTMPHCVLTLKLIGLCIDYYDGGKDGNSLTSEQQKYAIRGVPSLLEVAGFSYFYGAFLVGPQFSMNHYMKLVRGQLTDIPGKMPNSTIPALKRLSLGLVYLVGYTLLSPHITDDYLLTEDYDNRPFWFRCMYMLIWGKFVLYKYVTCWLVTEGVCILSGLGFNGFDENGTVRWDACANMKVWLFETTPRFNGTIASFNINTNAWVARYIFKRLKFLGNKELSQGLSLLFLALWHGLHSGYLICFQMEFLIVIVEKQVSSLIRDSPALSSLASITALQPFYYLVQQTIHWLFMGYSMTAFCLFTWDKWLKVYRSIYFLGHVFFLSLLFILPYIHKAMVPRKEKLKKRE

[8] = molecular target: T7, AEA-DA lipid probe targets in Neuro2a cells (Mus musculus, UniProt Q9R1J0); details: for SILAC ratio, NSDHL (Q15738): Neuro2a cells, AEA-DA probe
T7 sequence (Q9R1J0 1-362): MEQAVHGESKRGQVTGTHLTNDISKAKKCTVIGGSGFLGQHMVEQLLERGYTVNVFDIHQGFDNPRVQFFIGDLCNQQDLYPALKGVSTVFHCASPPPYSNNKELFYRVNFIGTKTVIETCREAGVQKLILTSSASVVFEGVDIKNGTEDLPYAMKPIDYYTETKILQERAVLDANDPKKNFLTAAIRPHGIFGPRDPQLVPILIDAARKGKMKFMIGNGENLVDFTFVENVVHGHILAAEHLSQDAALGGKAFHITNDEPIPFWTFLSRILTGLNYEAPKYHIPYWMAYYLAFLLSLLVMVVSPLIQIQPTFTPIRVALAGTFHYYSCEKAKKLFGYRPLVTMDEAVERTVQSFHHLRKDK

AEA-DA lipid probe targets in Neuro2a cells (Mus musculus, UniProt P62814), sequence (P62814 whole entry): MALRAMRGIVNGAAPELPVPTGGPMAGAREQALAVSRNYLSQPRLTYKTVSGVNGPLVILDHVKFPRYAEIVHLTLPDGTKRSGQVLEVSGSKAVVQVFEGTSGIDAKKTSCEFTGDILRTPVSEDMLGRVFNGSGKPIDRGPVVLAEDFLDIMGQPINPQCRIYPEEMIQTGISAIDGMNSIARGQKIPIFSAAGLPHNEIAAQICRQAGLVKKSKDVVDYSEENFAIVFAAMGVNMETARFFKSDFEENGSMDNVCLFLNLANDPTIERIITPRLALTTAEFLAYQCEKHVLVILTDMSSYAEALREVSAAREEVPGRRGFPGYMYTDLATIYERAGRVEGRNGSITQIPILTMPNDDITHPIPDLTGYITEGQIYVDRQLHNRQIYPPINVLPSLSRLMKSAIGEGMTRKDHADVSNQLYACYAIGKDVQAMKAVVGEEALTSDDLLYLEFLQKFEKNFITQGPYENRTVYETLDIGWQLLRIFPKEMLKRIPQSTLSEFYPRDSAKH

CCCCC/C=C\C/C=C\C/C=C\C/C=C\CCCC(=O)NCCO [AEA, anandamide, reference compound]
SILAC ratio Atp6v1b2 ([1]; competitor 200 μM): 1.1 | SILAC ratio Myl6 ([2]; competitor 200 μM): 1.0 | SILAC ratio, DCAKD (Q8BHC4) ([3]; competitor 200 μM): 1.9 | SILAC ratio, Dcakd ([3]; competitor 200 μM): 1.9 | SILAC ratio, Tmem87a ([4]; competitor 200 μM): 1.8 | SILAC ratio, Sccpdh ([5]; competitor 200 μM): 3.4 | SILAC ratio, Kdelr3 ([6]; competitor 200 μM): 1.2 | SILAC ratio, LPCAT3 (Q6P1A2) ([7]; competitor 200 μM): 1.4 | SILAC ratio, Lpcat3 ([7]; competitor 200 μM): 1.4 | SILAC ratio, NSDHL (Q15738) ([8]; competitor 200 μM): 2.0 | SILAC ratio, Nsdhl ([8]; competitor 200 μM): 2.0

O=C(/C=C/c1cccnc1)NCCCCC1CCN(C(=O)c2ccccc2)CC1 [FK-866, reference compound]
SILAC ratio Atp6v1b2 ([1]; competitor 25 μM): 1.6 | SILAC ratio Myl6 ([2]; competitor 25 μM): 1.3 | SILAC ratio, DCAKD (Q8BHC4) ([3]; competitor 25 μM): 1.1 | SILAC ratio, Dcakd ([3]; competitor 25 μM): 1.1 | SILAC ratio, Tmem87a ([4]; competitor 25 μM): 1.1 | SILAC ratio, Sccpdh ([5]; competitor 25 μM): 7.3 | SILAC ratio, Kdelr3 ([6]; competitor 25 μM): 1.1 | SILAC ratio, LPCAT3 (Q6P1A2) ([7]; competitor 25 μM): 2.3 | SILAC ratio, Lpcat3 ([7]; competitor 25 μM): 2.3 | SILAC ratio, NSDHL (Q15738) ([8]; competitor 25 μM): 1.3 | SILAC ratio, Nsdhl ([8]; competitor 25 μM): 1.3

CN1CCN(C(=O)c2c(-c3ccccc3)c3cc([N+](=O)[O-])ccc3n2C)CC1 [KML110, (1-Methyl-5-nitro-3-phenyl-1H-indol-2-yl)(4-methylpiperazin-1-yl)methanone]
SILAC ratio Atp6v1b2 ([1]; competitor 25 μM): 1.2 | SILAC ratio Myl6 ([2]; competitor 25 μM): 1.4 | SILAC ratio, Dcakd ([3]; competitor 25 μM): 1.4 | SILAC ratio, Tmem87a ([4]; competitor 25 μM): 1.8 | SILAC ratio, Sccpdh ([5]; competitor 25 μM): 2.6 | SILAC ratio, Kdelr3 ([6]; competitor 25 μM): 1.2 | SILAC ratio, Lpcat3 ([7]; competitor 25 μM): 1.3 | SILAC ratio, Nsdhl ([8]; competitor 25 μM): 1.7

CN1CCN(C(=O)c2[nH]c3ccc([N+](=O)[O-])cc3c2-c2ccccc2)CC1 [MJN228, (4-Methylpiperazin-1-yl)(5-nitro-3-phenyl-1H-indol-2-yl)methanone]
SILAC ratio Atp6v1b2 ([1]; competitor 10 μM): 1.2 | SILAC ratio Atp6v1b2 ([1]; competitor 25 μM): 1.1 | SILAC ratio Atp6v1b2 ([1]; competitor 50 μM): 0.9 | SILAC ratio Myl6 ([2]; competitor 10 μM): 1.1 | SILAC ratio Myl6 ([2]; competitor 25 μM): 1.0 | SILAC ratio Myl6 ([2]; competitor 50 μM): 1.3 | SILAC ratio, DCAKD (Q8BHC4) ([3]; competitor 25 μM): 1.4 | SILAC ratio, Dcakd ([3]; competitor 10 μM): 1.2 | SILAC ratio, Dcakd ([3]; competitor 25 μM): 1.4 | SILAC ratio, Dcakd ([3]; competitor 50 μM): 1.5 | SILAC ratio, Dcakd ([3]; competitor 100 μM): 1.9 | SILAC ratio, Tmem87a ([4]; competitor 10 μM): 1.3 | SILAC ratio, Tmem87a ([4]; competitor 25 μM): 1.9 | SILAC ratio, Tmem87a ([4]; competitor 50 μM): 1.6 | SILAC ratio, Tmem87a ([4]; competitor 100 μM): 2.7 | SILAC ratio, Sccpdh ([5]; competitor 10 μM): 1.4 | SILAC ratio, Sccpdh ([5]; competitor 25 μM): 2.1 | SILAC ratio, Sccpdh ([5]; competitor 50 μM): 3.3 | SILAC ratio, Sccpdh ([5]; competitor 100 μM): 5.9 | SILAC ratio, Kdelr3 ([6]; competitor 10 μM): 1.2 | SILAC ratio, Kdelr3 ([6]; competitor 25 μM): 1.3 | SILAC ratio, Kdelr3 ([6]; competitor 50 μM): 1.3 | SILAC ratio, Kdelr3 ([6]; competitor 100 μM): 1.6 | SILAC ratio, Lpcat3 ([7]; competitor 10 μM): 1.2 | SILAC ratio, Lpcat3 ([7]; competitor 25 μM): 1.2 | SILAC ratio, Lpcat3 ([7]; competitor 50 μM): 1.4 | SILAC ratio, Lpcat3 ([7]; competitor 100 μM): 1.5 | SILAC ratio, NSDHL (Q15738) ([8]; competitor 25 μM): 2.3 | SILAC ratio, Nsdhl ([8]; competitor 10 μM): 1.7 | SILAC ratio, Nsdhl ([8]; competitor 25 μM): 2.3 | SILAC ratio, Nsdhl ([8]; competitor 50 μM): 3.0 | SILAC ratio, Nsdhl ([8]; competitor 100 μM): 4.0

C=CCN(C)CCCCCCOc1ccc(C(=O)c2ccc(Br)cc2)c(F)c1 [Ro 48-8071, reference compound]
SILAC ratio Atp6v1b2 ([1]; competitor 25 μM): 0.6 | SILAC ratio Myl6 ([2]; competitor 25 μM): 0.7 | SILAC ratio, DCAKD (Q8BHC4) ([3]; competitor 25 μM): 1.0 | SILAC ratio, Dcakd ([3]; competitor 25 μM): 1.0 | SILAC ratio, Tmem87a ([4]; competitor 25 μM): 2.3 | SILAC ratio, Sccpdh ([5]; competitor 25 μM): 1.6 | SILAC ratio, Kdelr3 ([6]; competitor 25 μM): 0.9 | SILAC ratio, LPCAT3 (Q6P1A2) ([7]; competitor 25 μM): 1.1 | SILAC ratio, Lpcat3 ([7]; competitor 25 μM): 1.1 | SILAC ratio, NSDHL (Q15738) ([8]; competitor 25 μM): 1.3 | SILAC ratio, Nsdhl ([8]; competitor 25 μM): 1.3
